Laboratory results reported in ChEMBL document CHEMBL5357036, “Latest developments in coumarin-based anticancer agents: mechanism of action and structure-activity relationship studies” (RSC Med Chem, 2024).

Assays:
Assay type in all cases: functional, cell-based
MDA-MB-231 [1] = assay: Cytotoxicity against human MDA-MB-231 cells assessed as cell growth inhibition measured after 48 hrs by SRB assay; conditions: MDA-MB-231, 48 h
HCT-116 = assay: Cytotoxicity against human HCT-116 cells assessed as reduction in cell viability incubated for 96 hrs by MTT assay; conditions: HCT-116, 96 h
MDA-MB-231 [2] = assay: Antiproliferative activity against human MDA-MB-231 cells assessed as cell growth inhibition incubated for 96 hrs by MTT assay; conditions: MDA-MB-231, 96 h

With Cc1ccc2c(Cn3cc(CO[C@H]4O[C@@H]5O[C@@]6(C)CC[C@H]7[C@H](C)CC[C@@H]([C@H]4C)[C@@]57OO6)nn3)cc(=O)oc2c1 the IC50 (MDA-MB-231 [1]) was over 100000 nM.
With Cc1cc(C)c2c(Cn3cc(CO[C@H]4O[C@@H]5O[C@@]6(C)CC[C@H]7[C@H](C)CC[C@@H]([C@H]4C)[C@@]57OO6)nn3)cc(=O)oc2c1 the IC50 (MDA-MB-231 [1]) was over 100000 nM.
C[C@H]1[C@@H](OCc2cn(Cc3cc(=O)oc4cc(O)ccc34)nn2)O[C@@H]2O[C@@]3(C)CC[C@H]4[C@H](C)CC[C@@H]1[C@@]24OO3 showed an IC50 (MDA-MB-231 [1]) of over 100000 nM.
Work on Cc1ccc2oc(=O)cc(Cn3cc(CO[C@H]4O[C@@H]5O[C@@]6(C)CC[C@H]7[C@H](C)CC[C@@H]([C@H]4C)[C@@]57OO6)nn3)c2c1 yielded an IC50 (MDA-MB-231 [1]) of over 100000 nM.
Cc1cccc2c(OCn3cc(CCO[C@H]4O[C@@H]5O[C@@]6(C)CC[C@H]7[C@H](C)CC[C@@H]([C@H]4C)[C@@]57OO6)nn3)cc(=O)oc12 showed an IC50 (HCT-116) of over 100000 nM.
Work on Cc1ccc2oc(=O)cc(OCn3cc(CCCO[C@H]4O[C@@H]5O[C@@]6(C)CC[C@H]7[C@H](C)CC[C@@H]([C@H]4C)[C@@]57OO6)nn3)c2c1 yielded an IC50 (MDA-MB-231 [2]) of 39 nM and an IC50 (HCT-116) of 39 nM.
For C[C@H]1[C@@H](OCCc2cn(Cc3cc(=O)oc4cc(O)ccc34)nn2)O[C@@H]2O[C@@]3(C)CC[C@H]4[C@H](C)CC[C@@H]1[C@@]24OO3, the IC50 (MDA-MB-231 [1]) was over 100000 nM.
C[C@H]1[C@@H](OCCc2cn(COc3cc(=O)oc4ccccc34)nn2)O[C@@H]2O[C@@]3(C)CC[C@H]4[C@H](C)CC[C@@H]1[C@@]24OO3 was tested, and the IC50 (HCT-116) was over 100000 nM.
Molecule Cc1cccc2c(OCn3cc(CCCO[C@H]4O[C@@H]5O[C@@]6(C)CC[C@H]7[C@H](C)CC[C@@H]([C@H]4C)[C@@]57OO6)nn3)cc(=O)oc12 has an IC50 (MDA-MB-231 [2]) of 39 nM and an IC50 (HCT-116) of 39 nM.
For Cc1ccc2c(OCn3cc(CCCO[C@H]4O[C@@H]5O[C@@]6(C)CC[C@H]7[C@H](C)CC[C@@H]([C@H]4C)[C@@]57OO6)nn3)cc(=O)oc2c1C, the IC50 (MDA-MB-231 [2]) was 39 nM and the IC50 (HCT-116) was 39 nM.
With Cc1ccc2c(Cn3cc(CCO[C@H]4O[C@@H]5O[C@@]6(C)CC[C@H]7[C@H](C)CC[C@@H]([C@H]4C)[C@@]57OO6)nn3)cc(=O)oc2c1 the IC50 (MDA-MB-231 [1]) was over 100000 nM.
Cc1ccc2c(OCn3cc(CCO[C@H]4O[C@@H]5O[C@@]6(C)CC[C@H]7[C@H](C)CC[C@@H]([C@H]4C)[C@@]57OO6)nn3)cc(=O)oc2c1C was tested, and the IC50 (HCT-116) was over 100000 nM.
For C[C@H]1[C@@H](OCCCc2cn(COc3cc(=O)oc4ccccc34)nn2)O[C@@H]2O[C@@]3(C)CC[C@H]4[C@H](C)CC[C@@H]1[C@@]24OO3, the IC50 (MDA-MB-231 [2]) was 39 nM and the IC50 (HCT-116) was 39 nM.
In the case of Cc1cc(C)c2c(OCn3cc(CCO[C@H]4O[C@@H]5O[C@@]6(C)CC[C@H]7[C@H](C)CC[C@@H]([C@H]4C)[C@@]57OO6)nn3)cc(=O)oc2c1, the IC50 (HCT-116) is reported as over 100000 nM.
Cc1ccc2oc(=O)cc(Cn3cc(CCO[C@H]4O[C@@H]5O[C@@]6(C)CC[C@H]7[C@H](C)CC[C@@H]([C@H]4C)[C@@]57OO6)nn3)c2c1 showed an IC50 (MDA-MB-231 [1]) of over 100000 nM.
Molecule Cc1cc(C)c2oc(=O)cc(OCn3cc(CCCO[C@H]4O[C@@H]5O[C@@]6(C)CC[C@H]7[C@H](C)CC[C@@H]([C@H]4C)[C@@]57OO6)nn3)c2c1 has an IC50 (MDA-MB-231 [2]) of 39 nM and an IC50 (HCT-116) of 39 nM.
Cc1cc(C)c2c(Cn3cc(CCO[C@H]4O[C@@H]5O[C@@]6(C)CC[C@H]7[C@H](C)CC[C@@H]([C@H]4C)[C@@]57OO6)nn3)cc(=O)oc2c1 was tested, and the IC50 (MDA-MB-231 [1]) was over 100000 nM.
With Cc1cc(C)c2oc(=O)cc(OCn3cc(CCO[C@H]4O[C@@H]5O[C@@]6(C)CC[C@H]7[C@H](C)CC[C@@H]([C@H]4C)[C@@]57OO6)nn3)c2c1 the IC50 (HCT-116) was over 100000 nM.
Cc1cc(C)c2c(OCn3cc(CCCO[C@H]4O[C@@H]5O[C@@]6(C)CC[C@H]7[C@H](C)CC[C@@H]([C@H]4C)[C@@]57OO6)nn3)cc(=O)oc2c1 showed an IC50 (MDA-MB-231 [2]) of 39 nM and an IC50 (HCT-116) of 39 nM.
Work on Cc1ccc2c(OCn3cc(CCCO[C@H]4O[C@@H]5O[C@@]6(C)CC[C@H]7[C@H](C)CC[C@@H]([C@H]4C)[C@@]57OO6)nn3)cc(=O)oc2c1 yielded an IC50 (MDA-MB-231 [2]) of 39 nM and an IC50 (HCT-116) of 39 nM.
